# In EP0432983A2 (priority 1989, dated 1991):
# Key:
# HSV-1 [1] = experiment: Inhibition of HSV-1 replication (anti-viral effect), PFU determination; assay type: cell-based; details: Human alphaherpesvirus 1; HSV-1 replication in CV-1 cells, 10 PFU per cell, 24 hours after infection
# Protocol: 16mm dia. wells are seeded each with 2 x 10⁵ CV-1 cells in 1ml aliquots of MEM10C. After three days, the cells are infected with HSV-1 at 10 PFU (Plaque Forming Units) per cell. The inoculum is replaced, after adsorption for 1.5 hours, in pairs of wells with 0. 5 ml aliquots of MEM5C containing the test concentrations of each of AH-1 and AH-2. Four hours from infection, the cells from two wells are scraped into the medium and frozen to -80°C. [The average of PFU/ml of these samples forms the base for calculating net virus production]. The remaining samples are collected in pairs of wells 24 hours after infection and are also frozen to -80°C. For determination of PFU/ml, each sample is diluted to 10⁻⁸.
# CV-1 cells = experiment: Inhibition of growth of CV-1 cells (cytotoxic effect); assay type: cell-based, monkey
# Protocol: CV-1 cells are seeded into 16 mm dia. wells at 10⁴ cells per well in 1ml aliquots of MEM10C. The following day, the medium is replaced with 0.5 ml aliquots of MEM10C containing the test concentrations of compounds AH-1 and AH-2, i. e. 0, 0.1, 0.5, 1, 5, 10 and 50 µg/ml. Determinations are all carried out in duplicate. Four days after seeding, the cells are trypsinised and counted. Percentage inhibition (%I) relative to the wells without test compound (i.e. the controls) is calculated and the IC₅₀ determined.
# HSV-1 [2] = experiment: Viral plaque reduction in HSV-1 infected CV-1 cells (Table 3); assay type: cell-based; parameters: key: (-) indicates no reduction in viral plaque production; (+) indicates a 50% reduction in viral plaque production; (++) indicates an 80% reduction in viral plaque production
# Protocol: (§1) This test is performed according to standard procedures for determination of cytotoxicity of a compound againt virus infected cells. In the present case, CV-1 (monkey kidney fibroblast cells) are infected with HSV-1 and the compounds of the invention tested against these at varying concentrations.
# (§2) The numbers show the toxicity throughout the CV-1 cells sheet. (-) indicates no reduction in viral plaque production (+) indicates a 50% reduction in viral plaque production (++) indicates an 80% reduction in viral plaque production.
# [3] = system: CV-1 (monkey kidney fibroblast cells); experiment: Toxicity throughout the CV-1 cell sheet (Table 3); assay type: cell-based
# Protocol: as §1, §2
# [4] = system: L-1210 cells (mouse lymphoma); experiment: Activity against L-1210 cells; assay type: cell-based
# [5] = system: VSV (Vesicular Stomatitis Virus); assay type: cell-based
# [6] = system: P-388 (mouse DBA/2 lymphoid neoplasm); experiment: General anti-tumour assay, P-388; assay type: cell-based
# Protocol: (§3) With compounds AH-3, AH-4 and AH-5, four general anti-tumour assays and two cytotoxicity assays were performed. Current screening protocols were employed using test substance diluted as above and at varying concentrations. Tests were performed against the tumour cells P-388 (mouse DBA/2 lymphoid neoplasm), A-549 (human lung carcinoma), HT-29 (human colon carcinoma) and MCF-7 (human breast carcinoma) and for the cytotoxicity assays against CV-1 (monkey kidney fibroblast) and BHK (Hamster kidney fibroblast).
# (§4) Scoring is performed as follows: (-) no activity - the number of cells is equal to the control of growth, 0-40% cell inhibition (+) low activity - numbers of cells are reduced by approx 50-60% (++) good activity - numbers of cells are reduced by approx 70-90% (+++) very good activity - there is 100% cell inhibition [(+) is the approximate IC₅₀]
# [7] = system: A-549 (human lung carcinoma); experiment: General anti-tumour assay, A-549; assay type: cell-based
# Protocol: as §3, §4
# [8] = system: HT-29 (human colon carcinoma); experiment: General anti-tumour assay, HT-29; assay type: cell-based
# Protocol: as §3, §4
# [9] = system: MCF-7 (human breast carcinoma); experiment: General anti-tumour assay, MCF-7; assay type: cell-based
# Protocol: as §3, §4
# [10] = system: CV-1 (monkey kidney fibroblast); experiment: Cytotoxicity assay, CV-1; assay type: cell-based
# Protocol: as §3, §4
# [11] = system: BHK (Hamster kidney fibroblast); experiment: Cytotoxicity assay, BHK; assay type: cell-based
# Protocol: as §3, §4
# [12] = system: HSV-1 (herpes simplex virus, type 1); experiment: General anti-viral assay, HSV-1 in CV-1 cells (plaque reduction); assay type: cell-based; details: Human alphaherpesvirus 1, CV-1, read-out: IC50 µg/ml approx
# [13] = system: VSV (Vesicular Stomatitis Virus); experiment: microbe, parasite or virus in culture; assay type: cell-based; details: BHK, read-out: IC50 µg/ml approx
smiles,measurement,setting,value
"Cc1c2c(c3c4c1C(C1OC1(C)C)CC(C)C4CCC3C)OCO2 (stereo not shown) [AH-1, Helioporin A]",IC50,HSV-1 [1],4 µg/mL
same,inhibition of growth,"CV-1 cells; CV-1 cells, 0.1, 0.5, 1, 5, 10 and 50 µg/ml",no inhibition of growth
same,IC50,"CV-1 cells; Primates, 96 h, CV-1 cell growth, counted four days after seeding",> 50 µg/mL
same,reduction in viral plaque production,HSV-1 [2]; 5µl of 500µg/ml in MeOH/Acet,-
same,reduction in viral plaque production,HSV-1 [2]; 10µl of 500µg/ml in MeOH/Acet,-
same,reduction in viral plaque production,HSV-1 [2]; 20µl of 500µg/ml in MeOH/Acet,+ ((+) indicates a 50% reduction in viral plaque production)
same,reduction in viral plaque production,HSV-1 [2]; 40µl of 500µg/ml in MeOH/Acet,++ ((++) indicates an 80% reduction in viral plaque production)
same,toxicity throughout the CV-1 cells sheet,[3]; 5µl of 500µg/ml in MeOH/Acet,0
same,toxicity throughout the CV-1 cells sheet,[3]; 10µl of 500µg/ml in MeOH/Acet,0
same,toxicity throughout the CV-1 cells sheet,[3]; 20µl of 500µg/ml in MeOH/Acet,0
same,toxicity throughout the CV-1 cells sheet,[3]; 40µl of 500µg/ml in MeOH/Acet,0
same,activity against L-1210 cells,[4],no activity
same,activity against VSV,[5],no activity
"CC(C)=CC(=O)CC(C)C1CCC(C)c2c1cc(C)c1c2OCO1 (stereo not shown) [AH-3, Helioporin C]",IC50,"[6]; Mus musculus, P388, P-388, read-out: IC50 µg/ml approx",~1 µg/mL
same,activity (cell inhibition),"[6]; P-388, TEST CONC (µg) 0.2","- ((-) no activity - the number of cells is equal to the control of growth, 0-40% cell inhibition)"
same,activity (cell inhibition),"[6]; P-388, TEST CONC (µg) 0.5","- ((-) no activity - the number of cells is equal to the control of growth, 0-40% cell inhibition)"
same,activity (cell inhibition),"[6]; P-388, TEST CONC (µg) 1",+ ((+) low activity - numbers of cells are reduced by approx 50-60%)
same,activity (cell inhibition),"[6]; P-388, TEST CONC (µg) 2",++ ((++) good activity - numbers of cells are reduced by approx 70-90%)
same,activity (cell inhibition),"[6]; P-388, TEST CONC (µg) 5",+++ ((+++) very good activity - there is 100% cell inhibition)
same,activity (cell inhibition),"[6]; P-388, TEST CONC (µg) 10",+++ ((+++) very good activity - there is 100% cell inhibition)
same,activity (cell inhibition),"[6]; P-388, TEST CONC (µg) 20",+++ ((+++) very good activity - there is 100% cell inhibition)
same,activity (cell inhibition),"[7]; A-549, TEST CONC (µg) 0.2","- ((-) no activity - the number of cells is equal to the control of growth, 0-40% cell inhibition)"
same,activity (cell inhibition),"[7]; A-549, TEST CONC (µg) 0.5","- ((-) no activity - the number of cells is equal to the control of growth, 0-40% cell inhibition)"
same,activity (cell inhibition),"[7]; A-549, TEST CONC (µg) 1","- ((-) no activity - the number of cells is equal to the control of growth, 0-40% cell inhibition)"
same,activity (cell inhibition),"[7]; A-549, TEST CONC (µg) 2","- ((-) no activity - the number of cells is equal to the control of growth, 0-40% cell inhibition)"
same,activity (cell inhibition),"[7]; A-549, TEST CONC (µg) 5",+ ((+) low activity - numbers of cells are reduced by approx 50-60%)
same,activity (cell inhibition),"[7]; A-549, TEST CONC (µg) 10",+++ ((+++) very good activity - there is 100% cell inhibition)
same,activity (cell inhibition),"[7]; A-549, TEST CONC (µg) 20",+++ ((+++) very good activity - there is 100% cell inhibition)
same,IC50,"[7]; Homo sapiens, A549, A-549, read-out: IC50 µg/ml approx",~5 µg/mL
same,activity (cell inhibition),"[8]; HT-29, TEST CONC (µg) 0.2","- ((-) no activity - the number of cells is equal to the control of growth, 0-40% cell inhibition)"
same,activity (cell inhibition),"[8]; HT-29, TEST CONC (µg) 0.5","- ((-) no activity - the number of cells is equal to the control of growth, 0-40% cell inhibition)"
same,activity (cell inhibition),"[8]; HT-29, TEST CONC (µg) 1","- ((-) no activity - the number of cells is equal to the control of growth, 0-40% cell inhibition)"
same,activity (cell inhibition),"[8]; HT-29, TEST CONC (µg) 2",+ ((+) low activity - numbers of cells are reduced by approx 50-60%)
same,activity (cell inhibition),"[8]; HT-29, TEST CONC (µg) 5",++ ((++) good activity - numbers of cells are reduced by approx 70-90%)
same,activity (cell inhibition),"[8]; HT-29, TEST CONC (µg) 10",+++ ((+++) very good activity - there is 100% cell inhibition)
same,activity (cell inhibition),"[8]; HT-29, TEST CONC (µg) 20",+++ ((+++) very good activity - there is 100% cell inhibition)
same,IC50,"[8]; Homo sapiens, HT-29, read-out: IC50 µg/ml approx",~2 µg/mL
same,IC50,"[9]; Homo sapiens, MCF7, MCF-7, read-out: IC50 µg/ml approx",~5 µg/mL
same,activity (cell inhibition),"[9]; MCF-7, TEST CONC (µg) 0.2","- ((-) no activity - the number of cells is equal to the control of growth, 0-40% cell inhibition)"
same,activity (cell inhibition),"[9]; MCF-7, TEST CONC (µg) 0.5","- ((-) no activity - the number of cells is equal to the control of growth, 0-40% cell inhibition)"
same,activity (cell inhibition),"[9]; MCF-7, TEST CONC (µg) 1","- ((-) no activity - the number of cells is equal to the control of growth, 0-40% cell inhibition)"
same,activity (cell inhibition),"[9]; MCF-7, TEST CONC (µg) 2","- ((-) no activity - the number of cells is equal to the control of growth, 0-40% cell inhibition)"
same,activity (cell inhibition),"[9]; MCF-7, TEST CONC (µg) 5",+ ((+) low activity - numbers of cells are reduced by approx 50-60%)
same,activity (cell inhibition),"[9]; MCF-7, TEST CONC (µg) 10",++ ((++) good activity - numbers of cells are reduced by approx 70-90%)
same,activity (cell inhibition),"[9]; MCF-7, TEST CONC (µg) 20",+++ ((+++) very good activity - there is 100% cell inhibition)
same,activity (cell inhibition),"[10]; CV-1, TEST CONC (µg) 0.2","- ((-) no activity - the number of cells is equal to the control of growth, 0-40% cell inhibition)"
same,activity (cell inhibition),"[10]; CV-1, TEST CONC (µg) 0.5","- ((-) no activity - the number of cells is equal to the control of growth, 0-40% cell inhibition)"
same,activity (cell inhibition),"[10]; CV-1, TEST CONC (µg) 1","- ((-) no activity - the number of cells is equal to the control of growth, 0-40% cell inhibition)"
same,activity (cell inhibition),"[10]; CV-1, TEST CONC (µg) 2","- ((-) no activity - the number of cells is equal to the control of growth, 0-40% cell inhibition)"
same,activity (cell inhibition),"[10]; CV-1, TEST CONC (µg) 5","- ((-) no activity - the number of cells is equal to the control of growth, 0-40% cell inhibition)"
same,activity (cell inhibition),"[10]; CV-1, TEST CONC (µg) 10",++ ((++) good activity - numbers of cells are reduced by approx 70-90%)
same,activity (cell inhibition),"[10]; CV-1, TEST CONC (µg) 20",+++ ((+++) very good activity - there is 100% cell inhibition)
same,IC50,"[10]; Primates, CV-1, read-out: IC50 µg/ml approx",5 to 10 µg/mL
same,IC50,"[11]; Mesocricetus auratus, read-out: IC50 µg/ml approx",~1 µg/mL
same,activity (cell inhibition),[11]; TEST CONC (µg) 0.2,"- ((-) no activity - the number of cells is equal to the control of growth, 0-40% cell inhibition)"
same,activity (cell inhibition),[11]; TEST CONC (µg) 0.5,"- ((-) no activity - the number of cells is equal to the control of growth, 0-40% cell inhibition)"
same,activity (cell inhibition),[11]; TEST CONC (µg) 1,+ ((+) low activity - numbers of cells are reduced by approx 50-60%)
same,activity (cell inhibition),[11]; TEST CONC (µg) 2,+++ ((+++) very good activity - there is 100% cell inhibition)
same,activity (cell inhibition),[11]; TEST CONC (µg) 5,+++ ((+++) very good activity - there is 100% cell inhibition)
same,activity (cell inhibition),[11]; TEST CONC (µg) 10,+++ ((+++) very good activity - there is 100% cell inhibition)
same,activity (cell inhibition),[11]; TEST CONC (µg) 20,+++ ((+++) very good activity - there is 100% cell inhibition)
same,IC50,[12],~40 µg/mL
same,IC50,[13],> 40 µg/mL
same,cytotoxicity (inhibition zone on the cell sheet),BHK cells,0-
